Source: patent US12391737B2, “Soluble NPY2 receptor agonists” (Boehringer Ingelheim International GmbH, priority 2020, dated 2025)

How the values were obtained:
Solubility determination = conditions: for Sol6: pH 6; for Sol7: pH 7
In short: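 Solubility is derived from the ratio of reversed-phase peak areas, filtered sample over a control dissolved at 1 mg/ml in 50% acetonitrile. Peptides are agitated for 2 hours at room temperature in 0.1 M sodium diphosphate at pH 6.4 or 7.0, aiming at 10 mg/ml.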

[1] = biological target: T1, Human Neuropeptide Y2 Receptor (Homo sapiens, UniProt P49146); experiment: Radioligand binding competition assay (RLB); conditions: Table 3, 125I-PYY(1-36) competition; read-out: Ki
T1 construct: purchased CHEMICON HTS066M
T1 sequence (P49146 1-381): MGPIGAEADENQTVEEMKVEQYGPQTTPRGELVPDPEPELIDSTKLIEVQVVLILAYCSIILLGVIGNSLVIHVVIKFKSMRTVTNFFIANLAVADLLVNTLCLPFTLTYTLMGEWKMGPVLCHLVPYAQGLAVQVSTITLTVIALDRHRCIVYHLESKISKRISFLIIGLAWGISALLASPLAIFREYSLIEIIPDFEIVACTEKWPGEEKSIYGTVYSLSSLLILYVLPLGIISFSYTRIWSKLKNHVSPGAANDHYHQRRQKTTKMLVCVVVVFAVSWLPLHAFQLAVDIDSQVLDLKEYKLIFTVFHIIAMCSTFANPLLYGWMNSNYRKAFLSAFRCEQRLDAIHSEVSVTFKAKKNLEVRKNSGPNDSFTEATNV
In short: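 Filtration competition binding on membranes from cells expressing the receptor, 0.5 μg protein/well, in 50 mM HEPES, 5 mM MgCl2, 1 mM CaCl2, pH 7.4, with 0.2% ovalbumin. Incubation ran 2 h at room temperature, followed by GF/C filtration and scintillation counting. IC50 came from nonlinear sigmoidal fits.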

Row | Structure (SMILES) | Sol6 (Solubility determination) [mg/mL] | Sol7 (Solubility determination) [mg/mL] | Ki [1] [nM]
1 | CC(C)CC(=O)N[C@@H](C)C(=O)N1CCC[C@H]1C(=O)N[C@@H](C)C(=O)N[C@@H](CCCCNC(=O)CCCCCNC(=O)CC[C@H](NC(=O)CCCCCCCCCCCCCCCCC(=O)O)C(=O)O)C(=O)N1CCC[C@H]1C(=O)N[C@@H](CCC(=O)O)C(=O)N[C@@H](CCC(=O)O)C(=O)N[C@@H](C)C(=O)N[C@@H](C)C(=O)N[C@@H](CO)C(=O)N1CCC[C@H]1C(=O)N[C@@H](CCC(=O)O)C(=O)N[C@@H](CCC(=O)O)C(=O)N[C@@H](CC(C)C)C(=O)N[C@@H](CCC(N)=O)C(=O)N[C@@H](CCCNC(=N)N)C(=O)N[C@@H](Cc1ccc(O)cc1)C(=O)N[C@@H](Cc1ccc(O)cc1)C(=O)N[C@H](C(=O)N[C@@H](C)C(=O)N[C@@H](CC(C)C)C(=O)N[C@@H](CCCNC(=N)N)C(=O)N[C@@H](Cc1c[nH]cn1)C(=O)N[C@@H](Cc1ccc(O)cc1)C(=O)N[C@@H](Cc1ccc(O)cc1)C(=O)N[C@@H](CC(N)=O)C(=O)N[C@@H](Cc1c[nH]c2ccccc12)C(=O)N[C@@H](CC(C)C)C(=O)N[C@H](C(=O)N[C@@H](CCCNC(=N)N)C(=O)N[C@@H](CCC(N)=O)C(=O)N[C@@H](CCCNC(=N)N)C(=O)N[C@@H](Cc1ccc(O)cc1)C(N)=O)[C@@H](C)O)C(C)C [Compound 157, N{alpha-4}-(3-methylbutanoyl)-N{epsilon-7}-(6-[(4S)-4-carboxy-4-(17-carboxyheptadecanamido)butanamido]hexanoyl)-[4A,6A,7K,9E,11A,18Q,22V,23A,28Y,30W,31L]-hPYY(4-36)] | 0.0 | 0.3 | 1.68
2 | CC(C)CC(=O)N[C@@H](C)C(=O)N1CCC[C@H]1C(=O)N[C@@H](CCC(=O)O)C(=O)N[C@@H](CCCCNC(=O)CCCCCNC(=O)CC[C@H](NC(=O)CCCCCCCCCCCCCCCCC(=O)O)C(=O)O)C(=O)N1CCC[C@H]1C(=O)N[C@@H](CCC(=O)O)C(=O)N[C@@H](C)C(=O)N[C@@H](CC(=O)O)C(=O)N[C@@H](C)C(=O)N[C@@H](CO)C(=O)N[C@@H](CCC(=O)O)C(=O)N[C@@H](CCC(=O)O)C(=O)N[C@@H](CCC(=O)O)C(=O)N[C@@H](CC(C)C)C(=O)N[C@@H](CCC(N)=O)C(=O)N[C@@H](CCCNC(=N)N)C(=O)N[C@@H](Cc1ccc(O)cc1)C(=O)N[C@@H](Cc1ccc(O)cc1)C(=O)N[C@H](C(=O)N[C@@H](CO)C(=O)N[C@@H](CC(C)C)C(=O)N[C@@H](CCCNC(=N)N)C(=O)N[C@@H](Cc1c[nH]cn1)C(=O)N[C@@H](Cc1ccc(O)cc1)C(=O)N[C@@H](Cc1ccc(O)cc1)C(=O)N[C@@H](CC(N)=O)C(=O)N[C@@H](Cc1c[nH]c2ccccc12)C(=O)N[C@@H](CC(C)C)C(=O)N[C@H](C(=O)N[C@@H](CCCNC(=N)N)C(=O)N[C@@H](CCC(N)=O)C(=O)N[C@@H](CCCNC(=N)N)C(=O)N[C@@H](Cc1ccc(O)cc1)C(N)=O)[C@@H](C)O)C(C)C [Compound 108, N{alpha-4}-(3-methylbutanoyl)-N{epsilon-7}-(6-[(4S)-4-carboxy-4-(17-carboxyheptadecanamido)butanamido]hexanoyl)-[4A,7K,9E,10A,14E,18Q,22V,28Y,30W,31L]-hPYY(4-36)] | 8.6 | 8.0 | 2.77
3 | CC[C@H](C)[C@H](NC(=O)[C@H](CCC(=O)O)NC(=O)[C@H](CCC(=O)O)NC(=O)[C@@H]1CCCN1C(=O)[C@@H](NC(=O)[C@H](C)NC(=O)[C@H](C)NC(=O)[C@H](CCC(=O)O)NC(=O)[C@H](CCC(=O)O)NC(=O)[C@@H]1CCCN1C(=O)[C@H](CCCCNC(=O)CCCCCNC(=O)CC[C@H](NC(=O)CCCCCCCCCCCCCCCCC(=O)O)C(=O)O)NC(=O)[C@H](CCC(=O)O)NC(=O)[C@@H]1CCCN1C(=O)[C@H](C)NC(=O)CC(C)C)[C@@H](C)O)C(=O)N[C@@H](CCC(N)=O)C(=O)N[C@@H](CCCNC(=N)N)C(=O)N[C@@H](Cc1ccc(O)cc1)C(=O)N[C@@H](Cc1ccc(O)cc1)C(=O)N[C@H](C(=O)N[C@@H](C)C(=O)N[C@@H](CC(C)C)C(=O)N[C@@H](CCCNC(=N)N)C(=O)N[C@@H](Cc1c[nH]cn1)C(=O)N[C@@H](Cc1ccc(O)cc1)C(=O)N[C@@H](Cc1ccc(O)cc1)C(=O)N[C@@H](CC(N)=O)C(=O)N[C@@H](Cc1c[nH]c2ccccc12)C(=O)N[C@@H](CC(C)C)C(=O)N[C@H](C(=O)N[C@@H](CCCNC(=N)N)C(=O)N[C@@H](CCC(N)=O)C(=O)N[C@@H](CCCNC(=N)N)C(=O)N[C@@H](Cc1ccc(O)cc1)C(N)=O)[C@@H](C)O)C(C)C [Compound 154, N{alpha-4}-(3-methylbutanoyl)-N{epsilon-7}-(6-[(4S)-4-carboxy-4-(17-carboxyheptadecanamido)butanamido]hexanoyl)-[4A,7K,9E,11A,13T,17I,18Q,22V,23A,28Y,30W,31L]-hPYY(4-36)] | 8.3 | >10.0 | 3.71

Continued by falling Ki [1], values first:

Row | Sol6 (Solubility determination) [mg/mL] | Sol7 (Solubility determination) [mg/mL] | Ki [1] [nM] | Structure (SMILES)
4 | 10.0 | 10.0 | 6.91 | CC(C)CC(=O)N[C@@H](C)C(=O)N1CCC[C@H]1C(=O)N[C@@H](CCC(=O)O)C(=O)N[C@@H](CCCCNC(=O)CCCCCNC(=O)CC[C@H](NC(=O)CCCCCCCCCCCCCCCCC(=O)O)C(=O)O)C(=O)N1CCC[C@H]1C(=O)N[C@@H](CCC(=O)O)C(=O)N[C@@H](CCC(=O)O)C(=O)N[C@@H](CC(=O)O)C(=O)N[C@@H](C)C(=O)N[C@H](C(=O)N[C@@H](CO)C(=O)N[C@@H](CCC(=O)O)C(=O)N[C@@H](CCC(=O)O)C(=O)N[C@@H](CC(C)C)C(=O)N[C@@H](CCC(N)=O)C(=O)N[C@@H](CCCNC(=N)N)C(=O)N[C@@H](Cc1ccc(O)cc1)C(=O)N[C@@H](Cc1ccc(O)cc1)C(=O)N[C@H](C(=O)N[C@@H](CO)C(=O)N[C@@H](CC(C)C)C(=O)N[C@@H](CCCNC(=N)N)C(=O)N[C@@H](Cc1c[nH]cn1)C(=O)N[C@@H](Cc1ccc(O)cc1)C(=O)N[C@@H](Cc1ccc(O)cc1)C(=O)N[C@@H](CC(N)=O)C(=O)N[C@@H](Cc1c[nH]c2ccccc12)C(=O)N[C@@H](CC(C)C)C(=O)N[C@H](C(=O)N[C@@H](CCCNC(=N)N)C(=O)N[C@@H](CCC(N)=O)C(=O)N[C@@H](CCCNC(=N)N)C(=O)N[C@@H](Cc1ccc(O)cc1)C(N)=O)[C@@H](C)O)C(C)C)[C@@H](C)O [Compound 83, N{alpha-4}-(3-methylbutanoyl)-N{epsilon-7}-(6-[(4S)-4-carboxy-4-(17-carboxyheptadecanamido)butanamido]hexanoyl)-[4A,7K,9E,13T,14S,18Q,22V,28Y,30W,31L]-hPYY(4-36)]
5 | 6.0 | 9.5 | 6.8 | CC(C)CC(=O)N[C@@H](C)C(=O)N1CCC[C@H]1C(=O)N[C@@H](CCC(=O)O)C(=O)N[C@@H](CCCCNC(=O)CCCCCNC(=O)CC[C@H](NC(=O)CCCCCCCCCCCCCCCCC(=O)O)C(=O)O)C(=O)N1CCC[C@H]1C(=O)N[C@@H](CCC(=O)O)C(=O)N[C@@H](CCC(=O)O)C(=O)N[C@@H](CC(C)C)C(=O)N[C@@H](C)C(=O)N[C@H](C(=O)N1CCC[C@H]1C(=O)N[C@@H](CCC(=O)O)C(=O)N[C@@H](CCC(=O)O)C(=O)N[C@@H](CC(C)C)C(=O)N[C@@H](CCC(N)=O)C(=O)N[C@@H](CCCNC(=N)N)C(=O)N[C@@H](Cc1ccc(O)cc1)C(=O)N[C@@H](Cc1ccc(O)cc1)C(=O)N[C@H](C(=O)N[C@@H](CO)C(=O)N[C@@H](CC(C)C)C(=O)N[C@@H](CCCNC(=N)N)C(=O)N[C@@H](Cc1c[nH]cn1)C(=O)N[C@@H](Cc1ccc(O)cc1)C(=O)N[C@@H](Cc1ccc(O)cc1)C(=O)N[C@@H](CC(N)=O)C(=O)N[C@@H](Cc1c[nH]c2ccccc12)C(=O)N[C@@H](CC(C)C)C(=O)N[C@H](C(=O)N[C@@H](CCCNC(=N)N)C(=O)N[C@@H](CCC(N)=O)C(=O)N[C@@H](CCCNC(=N)N)C(=O)N[C@@H](Cc1ccc(O)cc1)C(N)=O)[C@@H](C)O)C(C)C)[C@@H](C)O [Compound 153, N{alpha-4}-(3-methylbutanoyl)-N{epsilon-7}-(6-[(4S)-4-carboxy-4-(17-carboxyheptadecanamido)butanamido]hexanoyl)-[4A,7K,9E,11L,13T,18Q,22V,28Y,30W,31L]-hPYY(4-36)]
6 | 0.0 | 0.4 | 0.58 | CC[C@H](C)[C@H](NC(=O)[C@H](CCC(=O)O)NC(=O)[C@H](CCC(=O)O)NC(=O)[C@@H]1CCCN1C(=O)[C@H](CO)NC(=O)[C@H](C)NC(=O)[C@H](C)NC(=O)[C@H](CCC(=O)O)NC(=O)[C@@H]1CCCN1C(=O)[C@@H]1CCCN1C(=O)[C@H](CCCCNC(=O)CCCCCNC(=O)CC[C@H](NC(=O)CCCCCCCCCCCCCCCCC(=O)O)C(=O)O)NC(=O)[C@H](CCC(=O)O)NC(=O)[C@@H]1CCCN1C(=O)[C@H](C)NC(=O)CC(C)C)C(=O)N[C@@H](CCC(N)=O)C(=O)N[C@@H](CCCNC(=N)N)C(=O)N[C@@H](Cc1ccc(O)cc1)C(=O)N[C@@H](Cc1ccc(O)cc1)C(=O)N[C@H](C(=O)N[C@@H](C)C(=O)N[C@@H](CC(C)C)C(=O)N[C@@H](CCCNC(=N)N)C(=O)N[C@@H](Cc1c[nH]cn1)C(=O)N[C@@H](Cc1ccc(O)cc1)C(=O)N[C@@H](Cc1ccc(O)cc1)C(=O)N[C@@H](CC(N)=O)C(=O)N[C@@H](Cc1c[nH]c2ccccc12)C(=O)N[C@@H](CC(C)C)C(=O)N[C@H](C(=O)N[C@@H](CCCNC(=N)N)C(=O)N[C@@H](CCC(N)=O)C(=O)N[C@@H](CCCNC(=N)N)C(=O)N[C@@H](Cc1ccc(O)cc1)C(N)=O)[C@@H](C)O)C(C)C [Compound 158, N{alpha-4}-(3-methylbutanoyl)-N{epsilon-7}-(6-[(4S)-4-carboxy-4-(17-carboxyheptadecanamido)butanamido]hexanoyl)-[4A,7K,9P,11A,17I,18Q,22V,23A,28Y,30W,31L]-hPYY(4-36)]
